Where two headings read alike, the source gives them in different places.
Legend:
[1] = biological target: T1, human recombinant Monoacylglycerol Lipase (Homo sapiens, UniProt Q99685); assay: MAGL inhibition enzymatic assay, fluorogenic substrate 7-HCA, IC50 at T=0 min or after 30 minute incubation (T=30 min); assay type: biochemical; conditions: geometric mean of 2-4 determinations unless otherwise indicated
T1 sequence (Q99685 1-303): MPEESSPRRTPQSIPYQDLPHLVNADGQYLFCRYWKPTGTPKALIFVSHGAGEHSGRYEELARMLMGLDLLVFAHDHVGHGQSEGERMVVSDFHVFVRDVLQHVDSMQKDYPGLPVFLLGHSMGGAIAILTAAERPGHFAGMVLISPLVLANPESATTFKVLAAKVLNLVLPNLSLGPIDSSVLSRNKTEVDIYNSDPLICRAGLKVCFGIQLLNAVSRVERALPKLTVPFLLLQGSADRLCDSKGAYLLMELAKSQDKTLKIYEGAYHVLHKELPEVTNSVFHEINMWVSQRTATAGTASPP
Method: An equal volume of 7-HCA in assay buffer with 10% DMSO was added either immediately (T=0 min) or after a 30 minute incubation (T=30 min) to initiate the reaction. […] After these dilutions, the final concentration of the test compound ranged from 3 μM to 0.03 nM. […] IC50 values were generated based on a four parameter fit model using ABASE software from IDBS.

[2] = Prodrug in vivo pharmacokinetics in dogs after intravenous administration (LC-MS-MS of prodrug and parent); conditions: for % AUC Extrap / AUC Extrap / Co / Rate Constant / T½ / AUC / CL / Vdss: Beagle dogs; for clearance / Vd: beagle, dog, in vivo, iv, 0.7 mg/kg; for clearance: CL; for Vd: Vdss
Method: (§1) Pharmacokinetic parameters derived from the plasma analytical data were determined using Watson LIMS 7.2.003 (Thermo Fisher Scientific, Waltham, Mass.).

[3] = Prodrug in vivo pharmacokinetics in rats after intravenous administration (LC-MS-MS of prodrug and parent); conditions: for Vd: Vdss
Method: as §1

[4] = T = 0 min (substrate added immediately), read-out: MAGL (T = 0 min) IC50
[5] = T = 30 min (30 minute incubation), read-out: MAGL (T = 30 min) IC50
[6] = Example 31 in plasma, IV Example 31 at 0.7 mg/kg, Dog 01
[7] = Example 31 in plasma, IV Example 31 at 0.7 mg/kg, Dog 02
[8] = Example 31 in plasma, IV Example 31 at 0.7 mg/kg, Mean
[9] = Example 31 in plasma, Wistar Hann rats, IV Example 31 at 1.48 mg/kg, Mean
[10] = Example 31 in plasma, Wistar Hann rats, IV Example 31 at 1.48 mg/kg, Rat 01
[11] = Example 31 in plasma, Wistar Hann rats, IV Example 31 at 1.48 mg/kg, Rat 02
[12] = Example 32 in plasma, IV Example 32 at 1 mg/kg, Dog 03
[13] = Example 32 in plasma, IV Example 32 at 1 mg/kg, Dog 04
[14] = Example 32 in plasma, IV Example 32 at 1 mg/kg, Mean
[15] = Example 32 in plasma, rats, IV Example 32 (2 mg/kg active), Mean
[16] = Example 32 in plasma, rats, IV Example 32 (2 mg/kg active), Rat 03
[17] = Example 32 in plasma, rats, IV Example 32 (2 mg/kg active), Rat 04

## O=C(O[C@H](COP(=O)([O-])[O-])C(F)(F)F)N1CCC2(CC1)C[C@@H](NS(=O)(=O)c1ccccc1)CO2.[Na+].[Na+] [Example 31, (2R)-3,3,3-Trifluoro-2-[({(3R)-3-[(phenylsulfonyl)amino]-1-oxa-8-azaspiro[4.5]dec-8-yl}carbonyl)oxy]propyl phosphate, disodium salt]
[1]; [4]
  IC50: > 3 µM
[1]; [5]
  IC50: > 3 µM
[2]; [6]
  % AUC Extrap: 0.181%
  AUC Extrap: 108 ng·h/mL
  Co: 1630 ng/mL
  Rate Constant: 11.3 h⁻¹
  T½: 3.68 min
  clearance: 108 mL/min/kg
  Vd: 0.235 L/kg
[2]; Example 31 in plasma, IV Example 31 at 0.7 mg/kg, Dog 01, AUC interval 0-0.5 Hours
  AUC: 108 ng·h/mL
[2]; [7]
  % AUC Extrap: 0.103%
  AUC Extrap: 53.9 ng·h/mL
  Co: 821 ng/mL
  Rate Constant: 11.2 h⁻¹
  T½: 3.72 min
  clearance: 216 mL/min/kg
  Vd: 0.465 L/kg
[2]; Example 31 in plasma, IV Example 31 at 0.7 mg/kg, Dog 02, AUC interval 0-0.5 Hours
  AUC: 53.8 ng·h/mL
[2]; [8]
  % AUC Extrap: 0.142%
  AUC: 80.9 ng·h/mL
  AUC Extrap: 81.0 ng·h/mL
  Co: 1230 ng/mL
  Rate Constant: 11.3 h⁻¹
  T½: 3.7 min
  clearance: 162 mL/min/kg
  Vd: 0.35 L/kg
[3]; [9]
  % AUC Extrap: 1.41%
  AUC: 43.0 ng·h/mL
  AUC Extrap: 43.6 ng·h/mL
  Co: 476 ng/mL
  Rate Constant: 12.1 h⁻¹
  T½: 3.75 min
[3]; [10]
  % AUC Extrap: 1.19%
  AUC Extrap: 43.6 ng·h/mL
  Co: 399 ng/mL
  Rate Constant: 8.61 h⁻¹
  T½: 4.83 min
[3]; Example 31 in plasma, Wistar Hann rats, IV Example 31 at 1.48 mg/kg, Rat 01, AUC interval 0-0.5 Hours
  AUC: 43.1 ng·h/mL
[3]; [11]
  % AUC Extrap: 1.62%
  AUC Extrap: 43.6 ng·h/mL
  Co: 553 ng/mL
  Rate Constant: 15.6 h⁻¹
  T½: 2.67 min
[3]; Example 31 in plasma, Wistar Hann rats, IV Example 31 at 1.48 mg/kg, Rat 02, AUC interval 0-0.25 Hours
  AUC: 42.9 ng·h/mL
[3]; Wistar Hann, rat, in vivo, iv, 1.48 mg/kg
  clearance: 566 mL/min/kg
[3]; Wistar Hann, rat, in vivo, iv, 1.48 mg/kg, Example 31 in plasma, Wistar Hann rats, IV Example 31 at 1.48 mg/kg, Mean
  Vd: 2.23 L/kg
[3]; Wistar Hann, rat, in vivo, iv, 1.48 mg/kg, Example 31 in plasma, Wistar Hann rats, IV Example 31 at 1.48 mg/kg, Rat 01
  Vd: 2.86 L/kg
[3]; Wistar Hann, rat, in vivo, iv, 1.48 mg/kg, Example 31 in plasma, Wistar Hann rats, IV Example 31 at 1.48 mg/kg, Rat 02
  Vd: 1.59 L/kg

## O=C(O[C@H](COP(=O)([O-])[O-])C(F)(F)F)N1CCC2(CC1)CN(S(=O)(=O)c1ccc(F)cc1)CCO2.[Na+].[Na+] [Example 32, (2R)-3,3,3-Trifluoro-2-[({4-[(4-fluorophenyl)sulfonyl]-1-oxa-4,9-diazaspiro[5.5]undec-9-yl}carbonyl)oxy]propyl phosphate, disodium salt]
[1]; [4]
  IC50: > 3 µM
[1]; [5]
  IC50: > 3 µM
[2]; [12]
  % AUC Extrap: 0.0443%
  AUC Extrap: 146 ng·h/mL
  CL: 114 mL/min/kg
  Co: 1220 ng/mL
  Rate Constant: 5.08 h⁻¹
  T½: 8.16 min
  Vdss: 0.751 L/kg
[2]; Example 32 in plasma, IV Example 32 at 1 mg/kg, Dog 03, AUC interval 0-1 Hours
  AUC: 146 ng·h/mL
[2]; [13]
  % AUC Extrap: 0.150%
  AUC Extrap: 229 ng·h/mL
  CL: 72.8 mL/min/kg
  Co: 2370 ng/mL
  Rate Constant: 5.06 h⁻¹
  T½: 8.22 min
  Vdss: 0.357 L/kg
[2]; Example 32 in plasma, IV Example 32 at 1 mg/kg, Dog 04, AUC interval 0-1 Hours
  AUC: 229 ng·h/mL
[2]; [14]
  % AUC Extrap: 0.0972%
  AUC: 188 ng·h/mL
  AUC Extrap: 188 ng·h/mL
  CL: 93.4 mL/min/kg
  Co: 1800 ng/mL
  Rate Constant: 5.07 h⁻¹
  T½: 8.22 min
  Vdss: 0.554 L/kg
[3]; [15]
  % AUC Extrap: 0.532%
  AUC: 159 ng·h/mL
  AUC Extrap: 160 ng·h/mL
  CL: 215 mL/min/kg
  Co: 3760 ng/mL
  Rate Constant: 5.94 h⁻¹
  T½: 7.32 min
  Vdss: 0.597 L/kg
[3]; [16]
  % AUC Extrap: 0.232%
  AUC Extrap: 185 ng·h/mL
  CL: 180 mL/min/kg
  Co: 4480 ng/mL
  Rate Constant: 4.73 h⁻¹
  T½: 8.82 min
  Vdss: 0.515 L/kg
[3]; Example 32 in plasma, rats, IV Example 32 (2 mg/kg active), Rat 03, AUC interval 0-1 Hours
  AUC: 185 ng·h/mL
[3]; [17]
  % AUC Extrap: 0.832%
  AUC Extrap: 134 ng·h/mL
  CL: 249 mL/min/kg
  Co: 3040 ng/mL
  Rate Constant: 7.14 h⁻¹
  T½: 5.83 min
  Vdss: 0.679 L/kg
[3]; Example 32 in plasma, rats, IV Example 32 (2 mg/kg active), Rat 04, AUC interval 0-0.5 Hours
  AUC: 133 ng·h/mL

Reference: patent publication US10723711B2, “1,1,1-trifluoro-3-hydroxypropan-2-yl carbamate derivatives and 1,1,1-trifluoro-4-hydroxybutan-2-yl carbamate derivatives as MAGL inhibitors” (PFIZER INC., priority 2015, dated 2020)
